Four molecules from ChEMBL document CHEMBL1147261, “Xanthanolides, germacranolides, and other constituents from Carpesium longifolium” (J Nat Prod, 2003) can be followed below.

A word on the IC50: it is the midpoint of a concentration-inhibition curve. A high value points to weaker potency in that assay.

Values after ≈ are worked out from the molar mass of the structure shown.

The subject of experiment [1] is SMMC-7721. As to the kind of experiment: Cytotoxicity against human SMMC7721 cells by MTT assay. It is filed as functional, cell-based. For orientation: Tetrazolium dyes change colour on reduction, which living cells bring about.
Experiment [2] is described as follows: Cytotoxicity against human HO8910 cells by MTT assay. It is filed as functional, cell-based. The note with it: HO-8910.

As to `C/C1=C\CC[C@@]2(C)O[C@@H]2[C@H]2OC(=O)[C@@H](C)[C@@H]2CC1` [11BETA,13-DIHYDRO-PARTHENOLIDE], the results for the IC50 in experiment [1] and in experiment [2] were more than 200 µg/mL and 158 µg/mL (≈ 631 µM), respectively.
For `CC[C@]1(O)C[C@H]2CN(CCc3c([nH]c4ccccc34)[C@@](C(=O)OC)(c3cc4c(cc3OC)N(C=O)[C@H]3[C@@](O)(C(=O)OC)[C@H](OC(C)=O)[C@]5(CC)C=CCN6CC[C@]43[C@@H]65)C2)C1` [VINCRISTINE], in that order: 20.7 µg/mL (≈ 25.1 µM) and 1.37 µg/mL (≈ 1.66 µM).
For `C=C1C(=O)O[C@@H]2C3O[C@]3(C)CC/C=C(\C)CC[C@@H]12` (stereo partly drawn), in that order: 4.2 µg/mL (≈ 16.9 µM) and 1.37 µg/mL (≈ 5.52 µM).
Turning to `COc1ccc(C2CC(=O)c3c(O)cc(OC)cc3O2)cc1` (stereo not drawn), the IC50 in experiment [1] and in experiment [2] was more than 200 µg/mL each time.
